Test results from ChEMBL document CHEMBL2034837, “Discovery of Natural Phenols as G Protein-Coupled Receptor-35 (GPR35) Agonists” (ACS Med Chem Lett, 2012).
The source made the active and inactive calls. The rule behind the calls is not given here.

How the values were obtained:
[1] = target: T1, G-protein coupled receptor 35 (Homo sapiens, UniProt Q9HC97); experiment: Agonist activity at GPR35 receptor in human U2OS cells coexpressing Gal4-VP16-TEV assessed as beta arrestin translocation after 5 hrs by beta lactamase reporter gene assay relative to control; type: functional, cell-based
T1 sequence (Q9HC97 whole entry, the tested form may be a part): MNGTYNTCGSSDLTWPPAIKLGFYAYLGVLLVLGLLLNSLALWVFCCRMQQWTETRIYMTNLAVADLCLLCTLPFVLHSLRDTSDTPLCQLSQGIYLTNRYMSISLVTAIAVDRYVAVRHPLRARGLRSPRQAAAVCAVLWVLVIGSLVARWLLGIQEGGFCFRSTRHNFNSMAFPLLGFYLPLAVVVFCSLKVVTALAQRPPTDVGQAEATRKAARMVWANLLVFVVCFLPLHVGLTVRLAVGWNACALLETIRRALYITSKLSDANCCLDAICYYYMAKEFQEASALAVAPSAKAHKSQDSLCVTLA

[2] = target: T1, G-protein coupled receptor 35; experiment: Desensitization of GPR35 receptor in human HT-29 cells assessed as inhibition of zaprinast-induced dynamic mass redistribution after 10 mins; type: cell-based
[3] = target: T1, G-protein coupled receptor 35; experiment: Agonist activity at GPR35 receptor in human HT-29 cells assessed as shift in resonant wavelength of biosensor stimulation after 10 mins by dynamic mass redistribution assay relative to control; type: functional, cell-based
[4] = target: T1, G-protein coupled receptor 35; experiment: Agonist activity at GPR35 receptor in human U2OS cells coexpressing Gal4-VP16-TEV assessed as beta arrestin translocation after 5 hrs by beta lactamase reporter gene assay; type: functional, cell-based
[5] = target: T1, G-protein coupled receptor 35; experiment: Agonist activity at GPR35 receptor in human HT-29 cells at 8 uM after 10 mins by dynamic mass redistribution assay in the presence of SPB05142; type: functional, cell-based
[6] = target: T1, G-protein coupled receptor 35; experiment: Agonist activity at GPR35 receptor in human HT-29 cells after 10 mins by dynamic mass redistribution assay; type: functional, cell-based
[7] = target: T1, G-protein coupled receptor 35; experiment: Agonist activity at GPR35 receptor in human HT-29 cells at 4 uM after 10 mins by dynamic mass redistribution assay in the presence of SPB05142; type: functional, cell-based
[8] = target: T1, G-protein coupled receptor 35; experiment: Partial agonist activity at GPR35 receptor in human HT-29 cells after 10 mins by dynamic mass redistribution assay; type: functional, cell-based
[9] = target: T1, G-protein coupled receptor 35; experiment: Agonist activity at GPR35 receptor in human HT-29 cells at 32 uM after 10 mins by dynamic mass redistribution assay in the presence of SPB05142; type: functional, cell-based
[10] = target: T1, G-protein coupled receptor 35; experiment: Partial agonist activity at GPR35 receptor in human U2OS cells coexpressing Gal4-VP16-TEV assessed as beta arrestin translocation after 5 hrs by beta lactamase reporter gene assay; type: functional, cell-based
[11] = target: T1, G-protein coupled receptor 35; experiment: Agonist activity at GPR35 receptor in human HT-29 cells at 16 uM after 10 mins by dynamic mass redistribution assay in the presence of SPB05142; type: functional, cell-based
[12] = target: T1, G-protein coupled receptor 35; experiment: Agonist activity at GPR35 receptor in human HT-29 cells at 2 uM after 10 mins by dynamic mass redistribution assay in the presence of SPB05142; type: functional, cell-based

| Structure (SMILES) | Ratio [1] | IC50 [2] [µM] | Efficacy [3] [picometer] | EC50 [4] [µM] | Activity [5] | EC50 [6] [µM] | Activity [7] | Activity [8] | Activity [9] | Activity [10] | Activity [2] | Activity [6] | Activity [11] | Activity [12] |
| --- | --- | --- | --- | --- | --- | --- | --- | --- | --- | --- | --- | --- | --- | --- |
| N#C/C(=C\c1ccc(O)cc1)C(=O)O [alpha-CYANO-4-HYDROXYCINNAMIC ACID] | 4 | 30.4 | 331 | 70.7 | inactive | 9.8 |  |  |  |  |  |  |  |  |
| O=C(O)c1cc(O)c(=O)c2c(O)c(O)ccc2c1 [7-DESHYDROXYPYROGALLIN-4-CARBOXYLIC ACID] | 10.9 | 0.11 | 233 | 12.4 |  | 0.054 | inactive |  |  |  |  |  |  |  |
| O=c1c(O)c(-c2ccc(O)c(O)c2)oc2cc(O)cc(O)c12 [QUERCETIN] | 2.3 | 15.4 | 40 | 5.93 |  | 8.02 |  | Active | inactive |  |  |  |  |  |
| O=C(O)c1cccnc1Nc1cccc(C(F)(F)F)c1 |  |  | 260 |  |  |  |  |  | inactive | Active | Dose-dependent effect | Dose-dependent effect |  |  |
| O=C1C=C2CC3(O)COc4c(ccc(O)c4O)C3=C2C=C1O (stereo unspecified) [HEMATEIN] | 2.1 | 30.4 | 391 | 4.7 |  | 11.1 |  |  |  |  |  |  | inactive |  |
| CCCCCc1c2c(cc(O)c1C(=O)O)OC(=O)c1c(cc(OC)cc1C(=O)CCCC)O2 [LOBARIC ACID] | 2 | 4.54 | 317 | 17.6 |  | 2.39 |  |  |  |  |  |  | inactive |  |
| O=c1c(O)c(-c2cc(O)c(O)c(O)c2)oc2cc(O)cc(O)c12 [MYRICETIN] | 9.2 | 2.12 | 224 | 14.7 | inactive | 3.02 |  | Active |  |  |  |  |  |  |
| O=c1cc(-c2ccc(O)c(O)c2)oc2cc(O)cc(O)c12 [LUTEOLIN] | 1.5 | 18.6 | 68 | 3.2 |  | 7.24 |  | Active | inactive | Active |  |  |  |  |
| O=c1oc2c(O)c(O)cc3c(=O)oc4c(O)c(O)cc1c4c23 [ELLAGIC ACID] | 3.4 | 0.1 | 319 | 2.96 |  | 0.11 |  |  |  |  |  |  |  | inactive |
| Cc1c(C(=O)O)sc2c(Br)csc12 | 13.9 |  | 283 | 17.6 |  |  |  |  |  |  |  |  |  |  |
| CCCOc1ccccc1-c1nc2[nH]nnc2c(=O)[nH]1 |  |  | 269 |  |  |  |  |  |  |  |  |  |  |  |
| O=c1c(O)c(-c2ccc(O)cc2O)oc2cc(O)cc(O)c12 [MORIN] | 9.8 | 1.6 | 284 | 11.2 | inactive | 1.33 |  |  |  |  |  |  |  |  |
| O=c1cc(-c2ccccc2)oc2cc(O)c(O)c(O)c12 [BAICALEIN] | 2.1 | 28.2 | 248 | 22.7 |  | 10.3 |  |  | inactive | Active |  |  |  |  |
| CC(=O)NCCc1ccc(O)c(-c2c(O)c(O)c3c(c2O)C(=O)c2c(cc(O)c(C(=O)O)c2C(=O)O)C3=O)c1 [LACCACID ACID A] | 3.5 | 0.39 | 263 | 51.5 |  | 0.39 |  |  | inactive |  |  |  |  |  |
| CC(C)=CCC1=C(O)C(=O)c2ccccc2C1=O [LAPACHOL] | 8.7 | 4.66 | 328 | 47.9 | inactive | 2.84 |  |  |  |  |  |  |  |  |
